Where a name gives a salt, the structure may show the parent alone.
What was measured:
[1] = tested on: human lung large cell carcinoma, MDR negative (NCI-H460) cells; assay: 48-hour cellular proliferation assay (sulforhodamine staining), NCI-H460 cells; type: cell-based; conditions: 10^−4 M compound; for inhibition at 100 µM: Homo sapiens, read-out: NCI-460 % inhibition at 10^−4 M
Method: (§1) Compounds of this invention were tested in a 48-hour cellular proliferation assay which uses human colon adenocarcinoma, MDR positive (HCT-15) cells, and human lung large cell carcinoma, MDR negative (NCI-H460) cells, in the 96-well microtitre format described in Skehan P., et al. New Colorimetric Cytotoxicity Assay for Anticancer Drug Screening. 1990, J. Natl. Cancer Inst. 82:1107-1112, hereby incorporated by reference. Briefly, the wells of a microtitre plate were charged sequentially with cultured cells and compounds of the invention (1.0×10^−4 to 1.0×10^−11 M in 10% DMSO prepared by dissolving compounds of the invention in DMSO and adding 11 μL of the DMSO solution to 100 μL of culture medium for a final DMSO concentration of 10%). Two of the following controls were also present in each microtitre plate: a solvent (DMSO) control without drug that yielded a 0% inhibition level and a trichloroacetic acid-treated well that yielded a 100% inhibition level. The cells were grown in culture (37° C., 5% CO2 atmosphere) for 48 hours then fixed by the addition of trichloroacetic acid. The wells were stained with sulforhodamine, washed with 1% acetic acid, and treated with 0.01 M tris buffer (100 μL) to solubilize the adherent dye. The absorbance of the dye solution was measured with a Molecular Devices SpectraMax340 plate reader. The percent inhibition values were obtained by calculating the proportional response of the experimental values to the absorbance values of the controls.

[2] = tested on: human colon adenocarcinoma, MDR positive (HCT-15) cells; assay: 48-hour cellular proliferation assay (sulforhodamine staining), HCT-15 cells; type: cell-based; conditions: 10^−4 M compound, HCT-15 cells (MDR positive); for inhibition at 100 µM: Homo sapiens
Method: as §1

Row | Compound | NCI-460 % inhibition at 10^−4 M [1] | HCT-15 % inhibition at 10^−4 M [2] | inhibition at 100 µM [1] | inhibition at 100 µM [2]
1 | 3,4-dimethoxy-N-(3,4,5-trimethoxyphenyl)benzamide [Example 2] | 99.6% | >95% |  | 
2 | COc1cc(NS(=O)(=O)c2ccc(OC(F)(F)F)cc2)cc(OC)c1OC [Example 3, 4-trifluoromethoxy-N-(3,4,5-trimethoxyphenyl)benzenesulfonamide] |  |  | 100% | 94.4%
3 | COc1cc(NS(=O)(=O)c2ccc(C(F)(F)F)cc2)cc(OC)c1OC [Example 4, 4-trifluoromethyl-N-(3,4,5-trimethoxyphenyl)benzenesulfonamide] |  |  | 99.8% | 82.6%
4 | COc1cc(NS(=O)(=O)c2ccc([N+](=O)[O-])cc2)cc(OC)c1OC [Example 5, 4-nitro-N-(3,4,5-trimethoxyphenyl)benzenesulfonamide] |  |  | 99.9% | 68.5%
5 | COc1cc(NS(=O)(=O)c2ccc(N)cc2)cc(OC)c1OC [Example 6, 4-amino-N-(3,4,5-trimethoxyphenyl)benzenesulfonamide] |  |  | > 95% | 54.8%
6 | COc1cc(NS(=O)(=O)c2ccc(NC(=O)CCl)cc2)cc(OC)c1OC [Example 7, 4-((2-chloroacetyl)amino)-N-(3,4,5-trimethoxyphenyl)benzenesulfonamide] |  |  | 89.2% | 96.7%
7 | COc1cc(NS(=O)(=O)c2ccccc2[N+](=O)[O-])cc(OC)c1OC [Example 8, 2-nitro-N-(3,4,5-trimethoxyphenyl)benzenesulfonamide] |  |  | 50% | 53.8%
8 | COc1ccc(S(=O)(=O)Nc2cc(OC)c(OC)c(OC)c2)cc1[N+](=O)[O-] [Example 9, 4-methoxy-3-nitro-N-(3,4,5-trimethoxyphenyl)benzenesulfonamide] |  |  | 47.4% | 77.2%
9 | COc1ccc(S(=O)(=O)Nc2cc(OC)c(OC)c(OC)c2)cc1N [Example 10, 3-amino-4-methoxy-N-(3,4,5-trimethoxyphenyl)benzenesulfonamide hydrochloride] |  |  | 99.6% | 99.8%
10 | COc1cc(NS(=O)(=O)c2c[nH]c3ccc(N)cc23)cc(OC)c1OC [Example 17, 5-amino-N-(3,4,5-trimethoxyphenyl)-1H-indole-3-sulfonamide] |  |  | < 9.1% | 
11 | COc1cc(NS(=O)(=O)c2ccc3c(ccn3C)c2)cc(OC)c1OC [Example 19, 1-methyl-N-(3,4,5-trimethoxyphenyl)-1H-indole-5-sulfonamide] |  |  | 100% | 
12 | COc1ccc(NS(=O)(=O)c2cc(OC)c(OC)c(OC)c2)cc1 [Example 21, 3,4,5-trimethoxy-N-(4-methoxyphenyl)benenesulfonamide] | 96.0% | 97.8% |  | 
13 | COc1ccc(NC(=O)c2cc(OC)c(OC)c(OC)c2)cc1O [Example 22, N-(3-hydroxy-4-methoxyphenyl)-3,4,5-trimethoxybenzamide] |  |  | 99.5% | 99.8%
14 | COc1cc(S(=O)(=O)Nc2ccc3c(ccn3C)c2)cc(OC)c1OC [Example 23, N-(1-methyl-1H-indol-5-yl)-3,4,5-trimethoxybenzenesulfonamide] |  |  | 100% | 100%
15 | COc1cc(S(=O)(=O)Nc2ccc(N(C)C)cc2)cc(OC)c1OC [Example 24, N-(4-(dimethylamino)phenyl)-3,4,5-trimethoxybenzenesulfonamide] |  |  | 92% | 95.8%
16 | COc1cc(NS(=O)(=O)c2cc(OC)c(OC)c(OC)c2)ccc1F [Example 25, N-(4-fluoro-3-methoxyphenyl)-3,4,5-trimethoxybenzenesulfonamide] |  |  | 57.8% | 62.1%
17 | COc1cc(S(=O)(=O)Nc2ccc(OC(F)(F)F)cc2)cc(OC)c1OC [Example 26, 3,4,5-trimethoxy-N-(4-(trifluoromethoxy)phenyl)benzenesulfonamide] |  |  | 46.7% | 70.9%
18 | COc1cc(S(=O)(=O)Nc2c(F)c(F)c(F)c(F)c2F)cc(OC)c1OC [Example 27, 3,4,5-trimethoxy-N-(2,3,4,5,6-pentafluorophenyl)benzenesulfonamide] |  |  | 61.6% | 57%
19 | COc1ccc(NS(=O)(=O)c2cc(OC)c(OC)c(OC)c2)cc1N [Example 28, N-(3-amino-4-methoxyphenyl)-3,4,5-trimethoxybenzenesulfonamide hydrochloride] |  |  | 99.8% | 99.9%

Row | Compound | NCI-460 % inhibition at 10^−4 M [1] | HCT-15 % inhibition at 10^−4 M [2] | inhibition at 100 µM [1] | inhibition at 100 µM [2]
20 | COc1cc(S(=O)(=O)Nc2cccc3c2ccn3C)cc(OC)c1OC [Example 29, 3,4,5-trimethoxy-N-(1-methyl-1H-indol-4-yl)benzenesulfonamide] |  |  | 90.8% | 95.1%
21 | COc1cc(S(=O)(=O)Nc2ccc3ccn(C)c3c2)cc(OC)c1OC [Example 30, 3,4,5-trimethoxy-N-(1-methyl-1H-indol-6-yl)benzenesulfonamide] |  |  | 83.8% | 94.9%
22 | COc1cc(S(=O)(=O)Nc2ccc3[nH]ccc3c2)cc(OC)c1OC [Example 31, N-(1H-indol-5-yl)-3,4,5-trimethoxybenzenesulfonamide] |  |  | 95.1% | 98.6%
23 | COc1cc(S(=O)(=O)Nc2ccc3c(c2)cc(C)n3C)cc(OC)c1OC [Example 32, N-(1,2-dimethyl-1H-indol-5-yl)-3,4,5-trimethoxybenzenesulfonamide] |  |  | 99.8% | 99.8%
24 | COc1cc(S(=O)(=O)Nc2ccc3[nH]cc(Cl)c3c2)cc(OC)c1OC [Example 33, N-(3-chloro-1H-indol-5-yl)-3,4,5-trimethoxybenzenesulfonamide] |  |  | 2.8% | 92%
25 | COc1cc(S(=O)(=O)Nc2ccc3[nH]ncc3c2)cc(OC)c1OC [Example 34, N-(1H-indazol-5-yl)-3,4,5-trimethoxybenzenesulfonamide] |  |  | 18.5% | 47.6%
26 | COc1cc(S(=O)(=O)Nc2ccc3ncn(C)c3c2)cc(OC)c1OC [Example 35, 3,4,5-trimethoxy-N-(1-methyl-1H-benzimidazol-6-yl)benzenesulfonamide] |  |  | 34.5% | 65.2%
27 | COc1cc(S(=O)(=O)Nc2ccc3c(c2)ncn3C)cc(OC)c1OC [Example 36, 3,4,5-trimethoxy-N-(1-methyl-1H-benzimidazol-5-yl)benzenesulfonamide] |  |  | 99.5% | 99.3%
28 | COc1cc(S(=O)(=O)N(C)c2ccc3c(ccn3C)c2)cc(OC)c1OC [Example 37, 3,4,5-trimethoxy-N-methyl-N-(1-methyl-1H-indol-5-yl)benzenesulfonamide] |  |  | 100% | 99.9%
29 | COc1cc(S(=O)(=O)N(CCN(C)C)c2ccc3c(ccn3C)c2)cc(OC)c1OC [Example 38, 3,4,5-trimethoxy-N-(2-(dimethylamino)ethyl)-N-(1-methyl-1H-indol-5-yl)benzenesulfonamide] |  |  | 81% | 87.5%
30 | COc1cc(S(=O)(=O)Oc2ccc3[nH]ccc3c2)cc(OC)c1OC [Example 39, 1H-indol-5-ol, (3,4,5-trimethoxybenzenesulfonate)ester] | 100.0% | 100.0% |  | 
31 | COc1ccc(S(=O)(=O)Oc2cc(OC)c(OC)c(OC)c2)cc1 [Example 40, (3,4,5-trimethoxyphenyl) 4-methoxybenzenesulfonate] |  |  | 99.9% | 99.9%
32 | COc1cc(OS(=O)(=O)c2ccc(C)cc2)cc(OC)c1OC [Example 41, (3,4,5-trimethoxyphenyl) 4-methylbenzenesulfonate] |  |  | 99.5% | 99.8%
33 | COc1cc(S(=O)(=O)Oc2ccc3[nH]ccc3c2)cc(OC)c1OC [Example 42, 1H-indol-5-yl 3,4,5-trimethoxybenzenesulfonate] |  |  | 100% | 100%
34 | COc1ccc(S(=O)(=O)Oc2cc(OC)c(OC)c(OC)c2)cc1N [Example 43, (3,4,5-trimethoxyphenyl) 3-amino-4-methoxybenzenesulfonate] |  |  | 100% | 100%
35 | COc1cc(OS(=O)(=O)c2ccc(N(C)C)cc2)cc(OC)c1OC [Example 44, (3,4,5-trimethoxyphenyl)-4-(dimethylamino)benzenesulfonate] |  |  | 99.9% | 100%
36 | COc1cc(S(=O)(=O)Oc2ccc(C)cc2)cc(OC)c1OC [Example 45, 4-methylphenyl 3,4,5-trimethoxybenzenesulfonate] |  |  | 99.4% | 99.9%
37 | COc1cc(OS(=O)(=O)c2ccc3c(c2)CCN3C)cc(OC)c1OC [Example 46, 3,4,5-trimethoxyphenyl 1-methyl-5-indolinesulfonate] |  |  | 99.5% | 99.6%

From patent US6924304B2, “Cell proliferation inhibitors” (Abbott Laboratories, priority 1999, dated 2005)
